Reference: article PMC5653977 (EMBO Molecular Medicine, 2017)
Counter-ions that a name gives are not always drawn.

Tested on: NRG1-ERBB4 signaling
Test: Nrg1-ERBB4-PIK3R1 split TEV co-culture compound screen of the NIH Clinical Collection
Format: cell-based, human
Conditions: not given

For `CC(C)c1cccc(C(C)C)c1O` [Propofol, reference compound], the Z-SCORE was -0.98.

Same assay, conditions: NIH Clinical Collection NCC-003 raw data; compounds ranked by Z-score; 'flagged' given instead of a Z-score

Compared with `CCCCCCNC(=O)n1cc(F)c(=O)[nH]c1=O` [CARMOFUR], `Cc1nnc2n1-c1ccc(Cl)cc1C(c1ccccc1)=NC2` [Alprazolam] is higher in Z-SCORE: -2.48 for the first, -2.27 for the second.

With `CC[C@H](C)C(=O)O[C@H]1CCC=C2C=C[C@H](C)[C@H](CC[C@@H]3C[C@@H](O)CC(=O)O3)[C@H]21` [mevastatin] the Z-SCORE was “flagged”.
In the case of `COc1cccc2c1C(=O)c1c(O)c3c(c(O)c1C2=O)C[C@@](O)(C(=O)CO)C[C@@H]3O[C@H]1C[C@H](N)[C@@H](O)[C@H](C)O1` [EPIRUBICIN HYDROCHLORIDE], the Z-SCORE is reported as “flagged”.
For `COc1cccc2c1C(=O)c1c(O)c3c(c(O)c1C2=O)C[C@@](O)(C(=O)CO)C[C@@H]3O[C@H]1C[C@H](N)[C@H](O)[C@H](C)O1` [DOXORUBICIN HYDROCHLORIDE], the Z-SCORE was “flagged”.

Same assay, conditions: compound screen of the NIH Clinical Collection, sheet raw data NCC-003; compounds ranked by Z-score

First: C[C@H](CCC(=O)O)[C@H]1CC[C@H]2[C@@H]3C(=O)C[C@@H]4CC(=O)CC[C@]4(C)[C@H]3CC(=O)[C@]12C [DEHYDROCHOLIC ACID]
Second: C[C@]12CC[C@H](O)CC1=CC[C@@H]1[C@@H]2CC[C@@]2(C)[C@H]1CC[C@]2(C)O [METHYLANDROSTENEDIOL]
The Z-SCORE of the first is lower: -0.51 for the first, 0.32 for the second.

First: CN1CCN(c2c(F)cc3c(=O)c(C(=O)O)cn4c3c2SCC4)CC1.Cl [RUFLOXACIN HCl]
Second: CN1CCN(c2nc3cc(C(F)(F)F)ccc3n3cccc23)CC1.O=C(O)/C=C\C(=O)O.O=C(O)/C=C\C(=O)O [CGS 12066B]
The Z-SCORE of the first is higher: 1.1 for the first, 0.3 for the second.

Going from `O=C(O[C@H]1[C@H](Oc2ccccc2COC(=O)C2(O)C=CCCC2=O)O[C@H](CO)[C@@H](O)[C@@H]1O)c1ccccc1` (some centres unmarked) [TREMULACIN] to `O=c1c(O[C@@H]2O[C@H](CO)[C@H](O)[C@H](O)[C@H]2O)c(-c2ccc(O)c(O)c2)oc2cc(O)cc(O)c12` [HYPEROSIDE], the Z-SCORE rises from 0.29 to 0.68.

Compared with `Cc1ncc2n1-c1ccc(Cl)cc1C(c1ccccc1F)=NC2` [MIDAZOLAM HCl], `CS(=O)(=O)c1ccc(-c2cc(Br)sc2-c2ccc(F)cc2)cc1` is lower in Z-SCORE: 0.91 for the first, 0.49 for the second.

Going from `CCC(=O)O[C@]1(C(=O)SCF)[C@H](C)C[C@H]2[C@@H]3C[C@H](F)C4=CC(=O)C=C[C@]4(C)[C@@]3(F)[C@@H](O)C[C@@]21C` [FLUTICASONE PROPIONATE] to `CC[C@H](C)C(=O)O[C@H]1C[C@H](O)C=C2C=C[C@H](C)[C@H](CC[C@@H](O)C[C@@H](O)CC(=O)O)[C@H]21` [PRAVASTATIN Sodium], the Z-SCORE falls from -0.31 to -0.44.

Going from `COc1cc2nc(N3CCN(C(=O)C4CCCO4)CC3)nc(N)c2cc1OC` (centres unmarked) [Terazosin, reference compound] to `COc1ccnc(C[S+]([O-])c2nc3cc(OC(F)F)ccc3[n-]2)c1OC.[Na+]` (centres unmarked) [PANTOPRAZOLE SODIUM SALT], the Z-SCORE rises from -0.8 to 1.42.

Compared with `O=c1n(CCCN2CCN(c3cccc(Cl)c3)CC2)nc2ccccn12` [TRAZODONE HYDROCHLORIDE], `CCCc1nc2c(C)cc(-c3nc4ccccc4n3C)cc2n1Cc1ccc(-c2ccccc2C(=O)O)cc1` is higher in Z-SCORE: 0.17 for the first, 0.38 for the second.

Going from `O=c1[nH]c(=O)n(C2CCCO2)cc1F` (centres unmarked) [FTORAFUR] to `Nc1ccn([C@H]2CC[C@@H](CO)O2)c(=O)n1` [2',3'-DIDEOXYCYTIDINE], the Z-SCORE rises from -0.09 to 1.38.

Compared with `COc1cc(-c2ccc(=O)[nH]n2)ccc1OC(F)F`, `Fc1ccc([C@@H]2CCNC[C@H]2COc2ccc3c(c2)OCO3)cc1` [Paroxetine, reference compound] is higher in Z-SCORE: 0.32 for the first, 2.09 for the second.

Going from `O=C(O)CCNC(=O)c1ccc(/N=N/c2ccc(O)c(C(=O)O)c2)cc1` [BALSALAZIDE] to `O=C1c2c(O)cc(O)cc2OC(c2ccc(O)c(O)c2)C1O` (stereo not drawn) [TAXIFOLIN-(+)], the Z-SCORE rises from 0.84 to 1.25.

Compared with `Oc1ccc2c3c1O[C@H]1c4[nH]c5ccccc5c4C[C@@]4(O)[C@@H](C2)N(CC2CC2)CC[C@]314` [Naltrindole], `Oc1ccc(C2CNCCc3c2cc(O)c(O)c3Cl)cc1` (centres unmarked) [FENOLDOPAM MESYLATE] is higher in Z-SCORE: -0.41 for the first, -0.37 for the second.

First: CC(=O)CCCCn1cnc2c1c(=O)n(C)c(=O)n2C [LOMIFYLLINE]
Second: CC[C@H]1OC(=O)[C@H](C)C(=O)[C@H](C)[C@@H](O[C@@H]2O[C@H](C)C[C@H](N(C)C)[C@H]2O)[C@](C)(OC)C[C@@H](C)C(=O)[C@H](C)[C@H]2N(CCCCn3cnc(-c4cccnc4)c3)C(=O)O[C@]12C [Telithromycin, reference compound]
The Z-SCORE of the first is lower: -0.7 for the first, 3.13 for the second.

Same assay, conditions: compound screen of the NIH Clinical Collection, sheet raw data NCC-003; compounds ranked by Z-score; listed as PAROXETINE

For `Fc1ccc([C@@H]2CCNC[C@H]2COc2ccc3c(c2)OCO3)cc1` [Paroxetine, reference compound], the Z-SCORE was 1.3.

Same assay, conditions: compounds at 10 μM, 24 h; PC12 split TEV assay cells co-cultured with Nrg1-expressing PC12 cells; analysed with cellHTS2

Compared with `Cc1onc(-c2c(Cl)cccc2Cl)c1C(=O)N[C@@H]1C(=O)N2[C@@H]1SC(C)(C)[C@@H]2C(=O)O` [DICLOXACILLIN SODIUM, reference compound], `CO[C@@]1(NC(=O)Cc2cccs2)C(=O)N2C(C(=O)O)=C(COC(N)=O)CS[C@@H]21` [CEFOXITIN SODIUM SALT, reference compound] is higher in Z-SCORE: 0.28 for the first, 2.55 for the second.

Compared with `O=C(O)c1cc(-c2ccc(F)cc2F)ccc1O` [Diflunisal, reference compound], `OC(Cn1cncn1)(Cn1cncn1)c1ccc(F)cc1F` [Fluconazole, reference compound] is higher in Z-SCORE: -0.6 for the first, 0.28 for the second.

Compared with `CN1[C@@H]2CC[C@H]1C[C@@H](OC(c1ccccc1)c1ccccc1)C2.CS(=O)(=O)O` [Cogentin Mesylate, reference compound], `NC(=O)N1c2ccccc2C=Cc2ccccc21` [Carbamazepine, reference compound] is higher in Z-SCORE: -2.36 for the first, -0.83 for the second.

First: CC(=O)OCC(=O)[C@@]1(O)CC[C@H]2[C@@H]3CCC4=CC(=O)CC[C@]4(C)[C@H]3C(=O)C[C@@]21C [CORTISONE ACETATE, reference compound]
Second: CC(=O)[C@H]1CC[C@H]2[C@@H]3C[C@H](C)C4=CC(=O)CC[C@]4(C)[C@H]3[C@@H](O)C[C@]12C [Medrysone, reference compound]
The Z-SCORE of the first is higher: 0.08 for the first, -1.74 for the second.

Compared with `Cc1nccn1CC1CCc2c(c3ccccc3n2C)C1=O` (centres unmarked) [Ondansetron, reference compound], `CCc1c(C)[nH]c2c1C(=O)C(CN1CCOCC1)CC2` (centres unmarked) [Moban, reference compound] is lower in Z-SCORE: 0.12 for the first, -0.44 for the second.

First: COc1cc2nc(N3CCN(C(=O)C4CCCO4)CC3)nc(N)c2cc1OC (centres unmarked) [Terazosin, reference compound]
Second: COC(=O)[C@H](c1ccccc1Cl)N1CCc2sccc2C1 [clopidogrel, reference compound]
The Z-SCORE of the first is lower: -1.96 for the first, -0.3 for the second.

Going from `O=c1[nH]cc(F)c(=O)[nH]1` [5-FLUOROURACIL, reference compound] to `Fc1ccc([C@@H]2CCNC[C@H]2COc2ccc3c(c2)OCO3)cc1` [Paroxetine, reference compound], the Z-SCORE rises from -1.82 to -0.28.

Going from `CC(C)(C(=O)c1cccnc1)c1cccnc1` [METYRAPONE, reference compound] to `CCCN(CCC)S(=O)(=O)c1ccc(C(=O)O)cc1` [Probenecid, reference compound], the Z-SCORE rises from 0.48 to 1.6.

First: CCc1cc(C(N)=S)ccn1 [Ethionamide, reference compound]
Second: Oc1ncnc2[nH]ncc12 [Allopurinol, reference compound]
The Z-SCORE of the first is higher: 0.42 for the first, 0.21 for the second.

Going from `COc1ccc([C@@H]2Sc3ccccc3N(CCN(C)C)C(=O)[C@@H]2OC(C)=O)cc1.Cl` (relative stereo) [(+)-CIS-DILTIAZEM HYDROCHLORIDE, reference compound] to `CN(C)CCCN1c2ccccc2Sc2ccc(Cl)cc21` [Sonazine, reference compound], the Z-SCORE rises from -0.13 to 0.6.

Compared with `CC/C(=C(\c1ccccc1)c1ccc(OCCN(C)C)cc1)c1ccccc1` [Tamoxifen, reference compound], `CC[C@H]1OC(=O)[C@H](C)C(=O)[C@H](C)[C@@H](O[C@@H]2O[C@H](C)C[C@H](N(C)C)[C@H]2O)[C@](C)(OC)C[C@@H](C)C(=O)[C@H](C)[C@H]2N(CCCCn3cnc(-c4cccnc4)c3)C(=O)O[C@]12C` [Telithromycin, reference compound] is higher in Z-SCORE: 1.48 for the first, 3.13 for the second.
